Experimental data published in US12246026B2, “Ganaxolone for use in treatment of status epilepticus” (Marinus Pharmaceuticals, Inc., priority 2019, dated 2025).

Legend:
[1] = Solubility of ganaxolone; format: physicochemical
Description: Ganaxolone is insoluble in water. […] Ganaxolone has a relatively long half-life—approximately 20 hours in human plasma following oral administration (Nohria, V. and Giller, E., Neurotherapeutics, (2007) 4(1): 102-105). Furthermore, ganaxolone has a short Tmax, which means that therapeutic blood levels are reached quickly.
Ganaxolone formulations suitable for parenteral administration in the methods of the present invention may comprise physiologically acceptable sterile aqueous or non-aqueous solutions, dispersions, suspensions or emulsions, and sterile powders for reconstitution into sterile injectable solutions or dispersions. Examples of suitable aqueous and non-aqueous carriers, diluents, solvents, or vehicles including water, ethanol, polyols (propylene glycol, polyethylene-glycol, glycerol, cremophor and the like), suitable mixtures thereof, vegetable oils (such as olive oil) and injectable organic esters such as ethyl oleate. Additionally, ganaxolone can be dissolved at concentrations of >1 mg/ml using water soluble beta cyclodextrins (e.g. beta-sulfobutyl-cyclodextrin and 2-hydroxypropylbetacyclodextrin). A particularly suitable cyclodextrin is a substituted-β-cyclodextrin is Captisol®. […]

[2] = Human PK in subjects taking strong CYP inducers; format: in vivo; conditions: subjects taking strong CYP inducers (carbamazepine and phenytoin)
[3] = Phase 1 IV ganaxolone pharmacokinetics in healthy subjects; format: in vivo, human
Description: A Phase I clinical trial evaluating IV ganaxolone formulation was performed. The clinical trial was designed to investigate the safety, pharmacokinetics, and pharmacodynamics of an intravenous bolus of ganaxolone and continuous intravenous infusion of ganaxolone in 30 healthy subjects. Subjects were administered either an intravenous bolus of ganaxolone in an amount of 10-20 mg for a period of 2 minutes to 1 hour, or an intravenous bolus of ganaxolone in an amount of 6 mg for a period of 5 minutes with a continuous intravenous infusion in an amount of 20 mg/hr for a period of 4 hours.
There was little or no delay between the appearance of drug in plasma and a change in the BIS score.

[4] = tested on: subject with SRSE; assay: Emergency IND No. 131,642, IV GNX in SRSE, EEG response; format: in vivo, human
Description: (§1) Under eIND No. 131,642, IV GNX was administered to a subject with SRSE who was unable to maintain status cessation with ketamine and barbiturates. The Day 1 dosage regimen delivered 900 mg of GNX, equating to a 900 to 1200 ng/mL plasma concentration of GNX. As the subject could not be maintained in burst suppression, the clinical team was able to utilize EEG changes to gauge the response (FIG. 11). […] However, due to the dosing plan agreed upon with the FDA with a daily Captisol limit of 63 g/day, the initial 120 mg/hr dose on Day 1 could not be maintained for longer than 1 hour and then had to be decreased to the 30 mg/hr dose. The first seizures re-occurred within 15 to 20 minutes of the change in GNX dose from 120 mg/hr to 30 mg/hr.

[5] = Emergency IND No. 131,642, GNX plasma concentration; format: in vivo; conditions: human, intravenous, eIND 131,642, Day 1 regimen delivering 900 mg
Description: as §1

[6] = tested on: RSE patients; assay: Phase 2 open-label dose range study, efficacy in RSE patients; format: in vivo, human; conditions: for GNX plasma concentration whose acute maintenance was associated with improved seizure control on EEG: PK/PD relationship, FIGS. 13A-13D
Description: Eligible patients were treated with continuous adjunctive IV ganaxolone infusion. Initial dosing included a 3-minute bolus dose (25 or 30 mg) with a continuous infusion at rates ranging from 10 to 85 mg/hour for up to 96-hours, followed by an 18-hour study drug taper.
The study enrolled 17 patients divided among 3 dosing cohorts. The IV solution utilizes Captisol® as an excipient for solubilization of ganaxolone. In an agreement with the Food and Drug Administration (FDA), the Captisol exposure for patients participating in Study 1042-SE-2001 was not to exceed 50 g/day. Given the daily Captisol limit, 3 different doses of GNX IV solution were investigated; 500, 650, and 713 mg/day total GNX referred to as the low, medium, and high dose level cohorts, respectively.

[7] = cited from earlier work
[8] = tested on: CYP3A4/5; assay: Metabolism by CYP enzymes; conditions: human
[9] = tested on: pediatric subject with SRSE; assay: Emergency IND No. 137,883, IV GNX in pediatric SRSE
[10] = Medium cohort, 650 mg/day, n = 4
[11] = Target cohort, 713 mg/day, n = 8

CC(=O)[C@H]1CC[C@H]2[C@@H]3CC[C@H]4C[C@](C)(O)CC[C@]4(C)[C@H]3CC[C@]12C [Ganaxolone, 3α-hydroxy-3β-methyl-5α-pregnan-20-one]
solubility ([1]; aqueous with cosolvent or surfactant or cyclodextrin, beta-sulfobutyl-cyclodextrin, 2-hydroxypropylbetacyclodextrin, read-out: dissolved concentration using water soluble beta cyclodextrins): > 1000 µg/mL | solubility in water ([1]; water): insoluble | lowering in overall ganaxolone levels and exposure [2]: ~45% | ganaxolone levels in plasma ([3]; all 30 healthy subjects, IV bolus or bolus plus infusion): quantifiable | dose relation of plasma concentrations ([3]; healthy subjects, IV): generally proportional to the administered dose | dose at which the effect of GNX started ([4]; eIND 131,642): 60 mg/h | EEG seizure response ([4]; eIND 131,642, at 120 mg/hr): complete seizure cessation | time to first seizure re-occurrence after dose change ([4]; eIND 131,642, change from 120 mg/hr to 30 mg/hr): 15 to 20 min | concentration at 1 day [5]: 900 to 1200 ng/mL | reduction in EEG seizure burden ([6]; 15 evaluable patients, low, medium and high cohorts): rapid and dose-dependent sustained reduction in EEG seizure burden | No SE Relapse at anytime during the 4-wk follow up period ([6]; Low cohort, 500 mg/day, 1 of 2 (1 died)): 50% | No escalation to IV anesthetics within 24 hrs from infusion initiation(Primary Endpoint) ([6]; Low cohort, 500 mg/day, n = 5): 100% | No escalation to additional IV AEDs or IV anesthetics for status relapse at any time through 24 hrs after GNX discontinuation ([6]; Low cohort, 500 mg/day, n = 5): 60% | Status-free through 24 hrs from infusion initiation ([6]; Low cohort, 500 mg/day, n = 5): 100% | No SE Relapse at anytime during the 4-wk follow up period ([6]; Medium cohort, 650 mg/day, 2 of 3 (1 ET)): 67% | No escalation to IV anesthetics within 24 hrs from infusion initiation(Primary Endpoint) [6, 10]: 100% | No escalation to additional IV AEDs or IV anesthetics for status relapse at any time through 24 hrs after GNX discontinuation [6, 10]: 75% | Status-free through 24 hrs from infusion initiation [6, 10]: 100% | GNX plasma concentration whose acute maintenance was associated with improved seizure control on EEG [6]: ≥ 500 ng/mL | GNX plasma concentration whose acute maintenance was associated with improved seizure control on EEG ([6]; listed as GNX): > 500 ng/mL | No SE Relapse at anytime during the 4-wk follow up period ([6]; Target cohort, 713 mg/day, 6 of 6 (1ET, 1 died)): 100% | No escalation to IV anesthetics within 24 hrs from infusion initiation(Primary Endpoint) [6, 11]: 100% | No escalation to additional IV AEDs or IV anesthetics for status relapse at any time through 24 hrs after GNX discontinuation [6, 11]: 100% | Status-free through 24 hrs from infusion initiation [6, 11]: 88% | patients not requiring additional IV AEDS or IV anesthetics for status relapse up to 4 weeks ([6]; all cohorts, 14 patients of 17): 82% | patients who achieved and maintained SE cessation within the first 24-hours ([6]; all cohorts, 16 patients of 17): 94% | patients not requiring escalation to an IV anesthetic drug for SE control within the first 24-hours ([6]; all cohorts, n=17): 100% | Median time to SE cessation from initiation of GNX treatment ([6]; all dose groups, n=15 evaluable patients): 5 min | patients with SE cessation achieved in <30 min ([6]; evaluable patients): 14 out of 15 | half-life ([7]; human plasma following oral administration): approximately 20 hours | Tmax ([7]; human): short | metabolizing enzymes [8]: metabolized by CYP3A4/5 | duration of suppressed EEG background ([9]; eIND 137,883): approximately 2 hours | finding on examination leading to stop of infusion ([9]; eIND 137,883): nonreactive pupils | EEG at the time of GNX bolus infusion ([9]; eIND 137,883, concomitant pentobarbital 2.25 mg/kg/hr): continuous suppressed background
